Among the data in ChEMBL document CHEMBL1208734, “Aryl boronic acid inhibition of synthetic melanin polymerization” (Bioorg Med Chem Lett, 2010) are IC50 and residual activity values, retold here.

In general, IC50 refers to the concentration at which inhibition is half-maximal. A lower IC50 goes with higher potency. What is called residual activity is what remains of the control signal, in per cent.

The structures appear in SMILES notation.

Assay [1] is described as follows: Inhibition of synthetic melanin polymerization after 30 to 60 mins by UV-vis spectroscopic analysis. The class given is functional.
Assay [2] can be described thus: Inhibition of synthetic melanin polymerization at 2 mM after 30 to 60 mins by UV-vis spectroscopic analysis relative to control. It counts as functional. The settings on record: values are per cent of control.

In the case of `N#Cc1ccc(B(O)O)cc1`, the concentration for half-maximal inhibition (IC50) in assay [1] was 590 µM. Besides, the residual activity in assay [2] turned out to be 19.4%.

The molecule `Cc1ccc(B(O)O)cc1` [TOLYL BORONIC ACID] had an IC50 in assay [1] of 4450 µM. In assay [2], the residual activity was found to be 62.8%.

With `OB(O)c1ccc(C(F)(F)F)cc1`, half-maximal inhibition in assay [1] (IC50) required 800 µM. The molecule also displayed a residual activity in assay [2] of 26.9%.

Consider `COc1ccc(B(O)O)cc1`, for which 6200 µM corresponded to half-maximal inhibition in assay [1] (IC50). This molecule also registered a residual activity in assay [2] of 66.1%.

In assay [1], `CC(=O)c1ccc(B(O)O)cc1` yielded a half-inhibitory concentration (IC50) of 690 µM. Also, the residual activity in assay [2] was 30.5%.

Turning to `OB(O)c1ccccc1` [PHENYLBORONIC ACID], in assay [1], the IC50 was determined as 1840 µM. In assay [2], this molecule showed a residual activity of 51.7%.

For `O=[N+]([O-])c1ccc(B(O)O)cc1`, in assay [1], it took 550 µM to reach half-maximal inhibition (IC50). In addition, in assay [2], the residual activity was determined as 21.5%.

In assay [1], `OB(O)c1ccc(Cl)cc1` yielded an IC50 of 1310 µM. Also, the residual activity in assay [2] was determined as 41.2%.

As for `OB(O)c1ccc(F)cc1`, in assay [1], half-maximal inhibition (IC50) was put at 1840 µM. The molecule further showed a residual activity in assay [2] of 49.7%.

`OB(O)c1ccc(Br)cc1` displayed an IC50 in assay [1] of 1030 µM. This molecule also returned a residual activity in assay [2] of 37.7%.
